Source: patent publication US8158657B2, “Heterocycles substituted pyridine derivatives and antifungal agent containing thereof” (Eisai R&D Management Co., Ltd., priority 2005, dated 2012)
In brackets after ≈: the same amount, converted by molar mass. Read-outs that look alike come from different tables or passages of the source.

Assays:
[1] = test system: C. albicans CAF2-1 strain; assay: Anti-Candida activity, MIC measurement; type: cell-based; settings: CAF21STRAIN, read-out: Anti-Candida Activity (minimum inhibitory concentration, MIC)
Method in brief: (§1)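 C. albicans CAF2-1 was grown 48 h at 30° C. in SDB and diluted in RPMI1640 to 1.2×10^3 cells/mL. Frozen A. fumigatus Tsukuba was diluted to 4.5×10^3 cells/mL. Compounds, two-fold serially diluted in DMSO from 2.5 mg/mL, were cultured aerobically with fungi for 42-48 h at 35° C.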

[2] = test system: A. fumigatus Tsukuba strain; assay: Anti-Aspergillus activity, MIC measurement; type: cell-based; settings: RPMI1640, 42-48 hours at 35° C., visual inspection, read-out: Anti-Aspergillus Activity (minimum inhibitory concentration, MIC)
Method in brief: as §1

[3] = test system: C. albicans E81022 strain; assay: Experimental systemic candidal infection model in mice; type: in vivo; settings: peroral, 3 times every 4 hours, female ICR mice, observed until 14 days after infection
Description: A standing culture of C. albicans E81022 strain was carried out for 48 hours at 30° C. in sabouraud dextrose agar medium (SDA), the recovered fungal cells were suspended in sterilized physiological saline. By counting the fungal number on cytometry plate, the suspension was diluted to 2×10^7 cells/mL with sterilized physiological saline to serve fungal inoculum.
The fungal inoculum was used in the amounts of 0.2 mL to inoculate 4.5 to 5.5 week-old female ICR mice in the tail vein (4×10^6 cells/mouse).
From 0.5 to 1 hour after fungal inoculation, 0.2 mL of agent solution (dissolved or suspended in sterilized physiological saline containing 6.5% dimethyl sulfoxide and 3.5% Tween 80) was administered into the stomach using a peroral probe, 3 times every 4 hours. The agent concentration was 2.5 mg/kg or 10 mg/kg, and the number of animals in one group was 5 animals.
The protective effect was determined by observing life/death until 14 days after infection and calculating the mean survival days.

[4] = C. albicans CAF2-1, RPMI1640, 42-48 hours at 35° C., visual inspection

Row | Structure (SMILES) | MIC [1, 4] | MIC [2] | Mean Survival Days ([3]; 2.5 mg/kg) | Mean Survival Days ([3]; 10 mg/kg) | MIC [1]
1 | Nc1ncccc1-c1cc(Cc2ccc(OCc3ccccc3)cc2)no1 [Example 1, 3-(3-(4-Benzyloxy-benzyl)-isoxazol-5-yl)-pyridin-2-ylamine] | 0.2 µg/mL (≈ 0.56 µM) | 0.2 µg/mL (≈ 0.56 µM) | 12.2 days | 14.0 days | 
2 | Nc1ncccc1-c1cc(Cc2ccc(COc3ccccn3)cc2)no1 [Example 2, 3-(3-(4-(Pyridin-2-yloxymethyl)-benzyl)-isoxazol-5-yl)-pyridin-2-ylamine] | 0.05 µg/mL (≈ 0.14 µM) | 0.2 µg/mL (≈ 0.558 µM) | 13.2 days | 14.0 days | 
3 | Nc1ncccc1-c1cc(Cc2ccc(OCc3ccccn3)cc2)no1 [Example 9, 3-(3-(4-(Pyridin-2-ylmethoxy)-benzyl)-isoxazol-5-yl)-pyridin-2-ylamine] | 0.2 µg/mL (≈ 0.558 µM) | 0.39 µg/mL (≈ 1.09 µM) | 12.8 days | 14.0 days | 
4 | CCOCc1ccc(Cn2cc(-c3cccnc3N)cn2)cc1 [Example 196, 3-(1-(4-Ethoxymethyl-benzyl)-1H-pyrazol-4-yl)-pyridin-2-ylamine] | 6.25 µg/mL (≈ 20.3 µM) | 6.25 µg/mL (≈ 20.3 µM) |  |  | 
5 | Nc1ncccc1-c1cnn(Cc2ccc(COC3CCC3)cc2)c1 [Example 197, 3-(1-(4-Cyclobutoxymethyl-benzyl)-1H-pyrazol-4-yl)-pyridin-2-ylamine] | 3.13 µg/mL (≈ 9.36 µM) | 1.56 µg/mL (≈ 4.66 µM) |  |  | 
6 | Nc1ccc(-c2cnn(Cc3ccc(OCc4ccccc4)nc3)c2)c(N)n1 [Example 198, 3-(1-(6-Benzyloxy-pyridin-3-ylmethyl)-1H-pyrazol-4-yl)-pyridin-2,6-diamine] | 0.78 µg/mL (≈ 2.09 µM) | 1.56 µg/mL (≈ 4.19 µM) |  |  | 
7 | Nc1ccc(-c2cnn(Cc3ccc(OCc4ccccn4)cc3)c2)c(N)n1 [Example 199] | 3.13 µg/mL (≈ 8.4 µM) | 6.25 µg/mL (≈ 16.8 µM) |  |  | 
8 | Nc1ccc(-c2cnn(Cc3ccc(Oc4ccccc4)nc3)c2)c(N)n1 [Example 200, 3-(1-(6-Phenoxy-pyridin-3-ylmethyl)-1H-pyrazol-4-yl)-pyridin-2,6-diamine] | 3.13 µg/mL (≈ 8.73 µM) | 3.13 µg/mL (≈ 8.73 µM) |  |  | 
9 | c1ccc(COc2ccc(Cc3cc(-c4cccnc4)on3)cc2)cc1 [Example 201, 3-(3-(4-Benzyloxy-benzyl)-isoxazol-5-yl)-pyridine] | 0.78 µg/mL (≈ 2.28 µM) | 0.39 µg/mL (≈ 1.14 µM) |  |  | 
10 | c1ccc(COc2ccc(Cc3cc(-c4cccnc4)on3)cc2)nc1 [Example 203, 3-(3-(4-(Pyridin-2-ylmethoxy)-benzyl)-isoxazol-5-yl)-pyridine] | 0.2 µg/mL (≈ 0.582 µM) | 1.56 µg/mL (≈ 4.54 µM) |  |  | 
11 | Nc1ncccc1-c1cc(Cc2ccc(COc3ccccn3)cc2F)no1 [Example 204, 3-(3-(2-Fluoro-4-(pyridin-2-yloxymethyl)-benzyl)-isoxazol-5-yl)-pyridin-2-ylamine] | 0.2 µg/mL (≈ 0.531 µM) | 0.39 µg/mL (≈ 1.04 µM) |  |  | 
12 | Nc1ncccc1-c1cc(Cc2ccc(SCc3ccccc3)cc2)no1 [Example 205, 3-(3-(4-Benzylsulfanyl-benzyl)-isoxazol-5-yl)-pyridin-2-ylamine] | 0.39 µg/mL (≈ 1.04 µM) | 0.78 µg/mL (≈ 2.09 µM) |  |  | 
13 | Nc1ncccc1-c1cc(Cc2ccc(CSc3ccccc3)cc2)no1 [Example 206] | 0.1 µg/mL (≈ 0.268 µM) | 0.39 µg/mL (≈ 1.04 µM) |  |  | 
14 | Nc1ncccc1-c1cc(Cc2ccc(Br)cc2)no1 [Example 207, 3-(3-(4-bromo-benzyl)-isoxazol-5-yl)-pyridin-2-ylamine] | 25 µg/mL (≈ 75.7 µM) | 6.25 µg/mL (≈ 18.9 µM) |  |  | 
15 | Nc1ncccc1-c1cc(Cc2ccc(Cc3ccc(F)cc3)o2)no1 [Example 208, 3-(3-(5-(4-Fluoro-benzyl)-furan-2-ylmethyl)-isoxazol-5-yl)-pyridin-2-ylamine] | 6.25 µg/mL (≈ 17.9 µM) | 0.78 µg/mL (≈ 2.23 µM) |  |  | 
16 | Nc1ncccc1-c1cc(Cc2ccc(Oc3ccccn3)cc2)no1 [Example 209, 3-(3-(4-(Pyridin-2-yloxy)-benzyl)-isoxazol-5-yl)-pyridin-2-ylamine] | 0.2 µg/mL (≈ 0.581 µM) | 0.39 µg/mL (≈ 1.13 µM) |  |  | 
17 | Nc1ncccc1-c1cc(Cc2ccc(Cc3ccccc3)nc2)no1 [Example 210, 3-(3-(6-Benzyl-pyridin-3-ylmethyl)-isoxazol-5-yl)-pyridin-2-ylamine] | 0.1 µg/mL (≈ 0.292 µM) | 0.2 µg/mL (≈ 0.584 µM) |  |  | 
18 | Nc1ccc(-c2cc(Cc3ccc(COc4ccccn4)cc3F)no2)c(N)n1 [Example 211, 3-(3-(2-Fluoro-4-(pyridin-2-yloxymethyl)-benzyl)-isoxazol-5-yl)-pyridin-2,6-diamine] | 0.39 µg/mL (≈ 0.996 µM) | 0.39 µg/mL (≈ 0.996 µM) |  |  | 

Row | Structure (SMILES) | MIC [1, 4] | MIC [2] | Mean Survival Days ([3]; 2.5 mg/kg) | Mean Survival Days ([3]; 10 mg/kg) | MIC [1]
19 | N#Cc1cccc(COc2ccc(Cc3cc(-c4ccc(N)nc4N)on3)cc2)c1 [Example 212, 3-(4-(5-(2,6-Diamino-pyridin-3-yl)-isoxazol-3-ylmethyl)-phenoxymethyl)benzonitrile] | 0.78 µg/mL (≈ 1.96 µM) | 0.78 µg/mL (≈ 1.96 µM) |  |  | 
20 | COC(=O)c1cccc(COc2ccc(Cc3cc(-c4ccc(N)nc4N)on3)cc2)c1 [Example 213, 3-(4-(5-(2,6-Diamino-pyridin-3-yl)-isoxazol-3-ylmethyl)-phenoxymethyl)benzoic acid methyl ester] | 6.25 µg/mL (≈ 14.5 µM) | 1.56 µg/mL (≈ 3.62 µM) |  |  | 
21 | C#Cc1cccc(COc2ccc(Cc3cc(-c4ccc(N)nc4N)on3)cc2)c1 [Example 214, 3-(3-(4-(3-Ethynyl-benzyloxy)-benzyl)-isoxazol-5-yl)-pyridin-2,6-diamine] | 0.39 µg/mL (≈ 0.984 µM) | 0.39 µg/mL (≈ 0.984 µM) |  |  | 
22 | Nc1ccc(-c2cc(Cc3ccc(Oc4cncc(Cl)n4)cc3)no2)c(N)n1 [Example 215, 3-(3-(4-(6-Chloro-pyrazin-2-yloxy)-benzyl)-isoxazol-5-yl)-pyridin-2,6-diamine] | 0.39 µg/mL (≈ 0.988 µM) | 0.78 µg/mL (≈ 1.98 µM) |  |  | 
23 | Nc1ccc(-c2cc(Cc3ccc(SCc4ccccc4)cc3)no2)c(N)n1 [Example 216, 3-(3-(4-Benzylsulfanyl-benzyl)-isoxazol-5-yl)-pyridin-2,6-diamine] | 0.39 µg/mL (≈ 1 µM) | 0.39 µg/mL (≈ 1 µM) |  |  | 
24 | Nc1ccc(-c2cc(Cc3ccc(CSc4ccccc4)cc3)no2)c(N)n1 [Example 217, 3-(3-(4-Phenylsulfanylmethyl-benzyl)-isoxazol-5-yl)-pyridin-2,6-diamine] | 0.1 µg/mL (≈ 0.257 µM) | 0.2 µg/mL (≈ 0.515 µM) |  |  | 
25 | CC(C)=CCOc1ccc(Cc2cc(-c3ccc(N)nc3N)on2)cc1 [Example 218, 3-(3-(4-(3-Methyl-2-but-2-enyloxy)-benzyl)-isoxazol-5-yl)-pyridin-2,6-diamine] |  | 0.1 µg/mL (≈ 0.285 µM) |  |  | 0.2 µg/mL (≈ 0.571 µM)
26 | C#CCOc1ccc(Cc2cc(-c3ccc(N)nc3N)on2)cc1 [Example 219, 3-(3-(4-Prop-2-ynyloxy-benzyl)-isoxazol-5-yl)-pyridine-2,6-diamine] | 3.13 µg/mL (≈ 9.77 µM) | 3.13 µg/mL (≈ 9.77 µM) |  |  | 
27 | Nc1ccc(-c2cc(Cc3ccc(Br)cc3)no2)c(N)n1 [Example 220, 3-(3-(4-Bromo-benzyl)-isoxazol-5-yl)-pyridine-2,6-diamine] | 6.25 µg/mL (≈ 18.1 µM) | 6.25 µg/mL (≈ 18.1 µM) |  |  | 
28 | Nc1ccc(-c2cc(Cc3ccc(Cc4ccc(F)cc4)o3)no2)c(N)n1 [Example 221, 3-(3-(5-(4-Fluoro-benzyl)-furan-2-ylmethyl)-isoxazol-5-yl)-pyridin-2,6-diamine] | 1.56 µg/mL (≈ 4.28 µM) | 0.39 µg/mL (≈ 1.07 µM) |  |  | 
29 | Nc1ccc(-c2cc(Cc3ccc(Oc4ccccn4)cc3)no2)c(N)n1 [Example 222, 3-(3-(4-(Pyridin-2-yloxy)-benzyl)-isoxazol-5-yl)-pyridin-2,6-diamine] | 0.39 µg/mL (≈ 1.09 µM) | 0.39 µg/mL (≈ 1.09 µM) |  |  | 
30 | Nc1ccc(-c2cc(Cc3ccc(Cc4ccccc4)nc3)no2)c(N)n1 [Example 223, 3-(3-(6-Benzyl-pyridin-3-ylmethyl)-isoxazol-5-yl)-pyridin-2,6-diamine] | 0.39 µg/mL (≈ 1.09 µM) | 0.39 µg/mL (≈ 1.09 µM) |  |  | 
31 | CNc1ccc(-c2cc(Cc3ccc(OCc4ccccc4)nc3)no2)c(N)n1 [Example 224, 3-(3-(6-Benzyloxy-pyridin-3-ylmethyl)-isoxazol-5-yl)-N^6-methyl-pyridin-2,6-diamine] | 0.39 µg/mL (≈ 1.01 µM) | 0.2 µg/mL (≈ 0.516 µM) |  |  | 
32 | Nc1nc(NCCO)ccc1-c1cc(Cc2ccc(OCc3ccccc3)nc2)no1 [Example 225, 2-(6-Amino-5-(3-(6-benzyloxy-pyridin-3-ylmethyl)-isoxazol-5-yl)-pyridin-2-ylamino)-ethanol] | 0.78 µg/mL (≈ 1.87 µM) | 3.13 µg/mL (≈ 7.5 µM) |  |  | 
33 | COCC(=O)Nc1ccc(-c2cc(Cc3ccc(OCc4ccccc4)nc3)no2)c(N)n1 [Example 226, N-(6-Amino-5-(3-(6-benzyloxy-pyridin-3-ylmethyl)-isoxazol-5-yl)-pyridin-2-yl)-2-methoxy-acetamide] | 0.39 µg/mL (≈ 0.875 µM) | 0.39 µg/mL (≈ 0.875 µM) |  |  | 
34 | CCOC(=O)CNc1ccc(-c2cc(Cc3ccc(OCc4ccccc4)nc3)no2)c(N)n1 [Example 227, (6-Amino-5-(3-(6-benzyloxy-pyridin-3-ylmethyl)-isoxazol-5-yl)-pyridin-2-ylamino)-acetic acid ethyl ester] | 1.56 µg/mL (≈ 3.39 µM) | 1.56 µg/mL (≈ 3.39 µM) |  |  | 
35 | CN(C)c1ncccc1-c1cc(Cc2ccc(OCc3ccccc3)cc2)no1 [Example 228, (3-(3-(4-Benzyloxy-benzyl)-isoxazol-5-yl)-pyridin-2-yl)-dimethyl-amine] | 0.78 µg/mL (≈ 2.02 µM) | 0.78 µg/mL (≈ 2.02 µM) |  |  | 
